The target of experiment [1] is T1, human SCD1 (Homo sapiens, UniProt O00767).
T1 construct: expressed in transfected cells; host or cells: yeast strain with OLE1 deleted, plasmid-borne human SCD1 (selected in SD-Ura)
T1 sequence (O00767 1-359): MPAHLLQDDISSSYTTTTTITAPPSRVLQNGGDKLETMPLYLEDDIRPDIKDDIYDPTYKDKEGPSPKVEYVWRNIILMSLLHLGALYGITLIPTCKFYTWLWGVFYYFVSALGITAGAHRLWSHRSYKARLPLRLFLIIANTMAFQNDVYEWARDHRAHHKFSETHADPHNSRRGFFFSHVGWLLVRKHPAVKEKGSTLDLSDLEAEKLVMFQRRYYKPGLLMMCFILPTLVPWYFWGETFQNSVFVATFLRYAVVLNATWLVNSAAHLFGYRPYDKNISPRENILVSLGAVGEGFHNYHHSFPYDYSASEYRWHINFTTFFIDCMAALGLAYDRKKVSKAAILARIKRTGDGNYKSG
Put plainly: Growth inhibition of yeast strain expressing human SCD1 as sole desaturase (OLE1 deleted), OD600 readout. It is filed as cell-based.

For experiment [2], the target named is T2, human SCD5 (Homo sapiens, UniProt Q86SK9).
T2 construct: expressed in transfected cells; host or cells: yeast strain with OLE1 deleted, plasmid-borne human SCD5 (selected in SD-Ura)
T2 sequence (Q86SK9 1-330): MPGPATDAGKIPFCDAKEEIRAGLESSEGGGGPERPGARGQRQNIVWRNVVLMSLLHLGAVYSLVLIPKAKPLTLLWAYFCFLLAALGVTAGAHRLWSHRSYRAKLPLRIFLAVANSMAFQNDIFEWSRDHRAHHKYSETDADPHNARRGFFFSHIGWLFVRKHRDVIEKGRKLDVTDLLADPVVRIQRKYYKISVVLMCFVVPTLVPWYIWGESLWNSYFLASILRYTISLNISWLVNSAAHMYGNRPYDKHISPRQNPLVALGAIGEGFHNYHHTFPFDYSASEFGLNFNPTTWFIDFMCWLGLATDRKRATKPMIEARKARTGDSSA
Put plainly: Growth inhibition of yeast strain expressing human SCD5 as sole desaturase (OLE1 deleted), OD600 readout. The format is cell-based.

Where [3] appears, read: yeast strain expressing human SCD1 as sole desaturase, growth (OD600) after 40 h at 30° C., read-out: SCD1 IC50.
Where [4] appears, read: yeast strain expressing human SCD5 as sole desaturase, growth (OD600) after 40 h at 30° C., read-out: SCD5 IC50.

Where two headings read alike, the source gives them in different places.

The IC50 is the point on the concentration scale where inhibition reaches its midpoint.

Take `O=C(Nc1ccc(CO)nc1)c1ccc(Cc2cccc(F)c2)cn1` [Compound 125, 5-(3-Fluorobenzyl)-N-(6-(hydroxymethyl)pyridin-3-yl)picolinamide]: the half-maximal inhibitory concentration (IC50) in experiment [1] (setting [3]) and in experiment [2] (setting [4]) was 0.01 µM throughout.
Take `N#Cc1ccc(C(=O)Nc2ccc(Cc3ccc(F)c(C#N)c3)cn2)nc1` [Compound 534]: the IC50 in experiment [1] (setting [3]) came out at 6 µM; in experiment [2] (setting [4]), 0.2 µM.
On the same counts, the results for `COCc1ncc(C(=O)Nc2ccc(Cc3cccc(Cl)c3)cn2)c(OC)n1` [Compound 110, N-(5-(3-chlorobenzyl)pyridin-2-yl)-4-methoxy-2-(methoxymethyl)pyrimidine-5-carboxamide] are 3.94 µM and 0.22 µM.
On to `Cn1nc(NC(=O)N[C@H]2CC[C@H](Cc3cccc(Cl)c3)CC2)ccc1=O` [Compound 434], for which the IC50 in experiment [1] (setting [3]) and in experiment [2] (setting [4]) was > 45 µM each time.
Consider `Cn1c(C(=O)Nc2ccc(Cc3ccc(F)c(F)c3)cn2)coc1=O` [Compound 508], for which the figures for the IC50 in experiment [1] (setting [3]) and in experiment [2] (setting [4]) were 2.6 µM and 0.45 µM, respectively.
As to `COc1ccc(Cc2ccc(NC(=O)c3ccc(=O)n(C)c3)nc2)cn1` [Compound 58, N-(5-((6-methoxypyridin-3-yl)methyl)pyridin-2-yl)-1-methyl-6-oxo-1,6-dihydropyridine-3-carboxamide], the concentration for half-maximal inhibition (IC50) in experiment [1] (setting [3]) is > 45 µM; in experiment [2] (SCD5 IC50) it was 35.6 µM.
As for `CN1N=C(C(=O)Nc2ccc(COc3ccc(F)c(Cl)c3)cn2)CCC1=O` [Compound 265], the half-inhibitory concentration (IC50) in experiment [1] (setting [3]) was 23.3 µM; in experiment [2] (setting [4]) it was 0.35 µM.
Take `Cc1cc(NC(=O)C2=NN(C)C(=O)CC2)ncc1Cc1cccc(Cl)c1` [Compound 123, N-(5-(3-chlorobenzyl)-4-methylpyridin-2-yl)-1-methyl-6-oxo-1,4,5,6-tetrahydropyridazine-3-carboxamide]: the IC50 in experiment [1] (setting [3]) is > 45 µM; in experiment [2] (setting [4]) it was 8.94 µM.
On the same counts, the results for `CN1N=C(C(=O)Nc2ccc(Cc3cccc(Cl)c3)cn2)CCC1=O` [Example 15, N-(5-(3-chlorobenzyl)pyridin-2-yl)-1-methyl-6-oxo-1,4,5,6-tetrahydropyridazine-3-carboxamide] are > 45 µM and 0.45 µM.
On the same counts, the results for `Cn1cc(C(=O)Nc2ccc(Cc3cncc(F)c3)cn2)ccc1=O` [Compound 453] are 0.18 µM and > 45 µM.
On the same counts, the results for `CN1N=C(C(=O)NCc2ccc(Cc3cccc(F)c3)cn2)CCC1=O` [Compound 381] are > 45 µM and > 45 µM.
As to `Cn1cc(C(=O)Nc2ccc(Cc3c(F)cccc3F)cn2)ccc1=O` [Compound 566], the IC50 was > 45 µM in experiment [1] (setting [3]) and 5.6 µM in experiment [2] (setting [4]).
On the same counts, the results for `CN1N=C(C(=O)Nc2ccc(Cc3cccc(Br)c3)cn2)CCC1=O` [Example 27, N-(5-(3-bromobenzyl)pyridin-2-yl)-1-methyl-6-oxo-1,4,5,6-tetrahydropyridazine-3-carboxamide] are > 45 µM and 0.39 µM.
The like results for `CCn1ccc(C(=O)Nc2ccc(Cc3ccc(F)cc3)cn2)n1` [Compound 102, 1-ethyl-N-(5-(4-fluorobenzyl)pyridin-2-yl)-1H-pyrazole-3-carboxamide] were, in that order, 10.3 µM and 0.08 µM.
The like results for `Cn1nc(CO)cc1C(=O)Nc1ccc(Cc2cccc(F)c2)cn1` [Compound 540] were, in that order, 0.06 µM and 0.01 µM.
In the case of `Cn1cc(C(=O)Nc2ccc(Cc3cncc(Cl)c3)cn2)ccc1=O` [Compound 276], the half-inhibitory concentration (IC50) in experiment [1] (setting [3]) was > 45 µM; in experiment [2] (setting [4]), 0.95 µM.
For the molecule `Cn1cccc(C(=O)Nc2ccc(Cc3cc(F)cc(F)c3)cn2)c1=O` [Compound 329], the IC50 in experiment [1] (setting [3]) stood at 0.1 µM; in experiment [2] (setting [4]) it was 0.01 µM.
Turning to `CNC(=O)c1ccnc(NC(=O)c2ccc(Cc3cccc(F)c3)cn2)c1` [Compound 567], the IC50 in experiment [1] (setting [3]) and in experiment [2] (setting [4]) was 0.01 µM in each case.
For the molecule `CCn1cc(C(=O)Nc2ccc(Oc3cccc(Cl)c3)cn2)ccc1=O` [Compound 165, N-[5-(3-chlorophenoxy)pyridin-2-yl]-1-ethyl-6-oxo-1,6-dihydropyridine-3-carboxamide], the IC50 in experiment [1] (setting [3]) was 14.2 µM; in experiment [2] (setting [4]), 3.31 µM.
Take `CN1N=C(C(=O)Nc2nc(Cc3ccc(F)cc3)cs2)CCC1=O` [Compound 378]: the IC50 in experiment [1] (setting [3]) and in experiment [2] (setting [4]) was > 45 µM each time.
`O=C(Nc1ccc(Cc2cccc(F)c2)nn1)c1ccc(=O)n(CC2CC2)n1` [Compound 376]: the IC50 in experiment [1] (setting [3]) and in experiment [2] (setting [4]) was > 45 µM in each case.
Consider `Cn1cc(C(=O)Nc2ccc(Cc3cc(C#N)ccc3F)cn2)ccc1=O` [Compound 648], for which the IC50 in experiment [1] (setting [3]) is > 45 µM; in experiment [2] (setting [4]) it was 0.99 µM.
On to `O=C(Nc1ccc(Cc2cccc(Cl)c2)cn1)c1ccc([C@@H](O)CO)nc1` [Compound 605], for which the IC50 in experiment [1] (setting [3]) was 0.28 µM; in experiment [2] (setting [4]) it was 0.32 µM.
The like results for `Cn1nc(C(=O)NC2CCC(Oc3cccc(Cl)c3)CC2)ccc1=O` (stereo not drawn) [Compound 369] were, in that order, > 45 µM and 14 µM.
The like results for `Cn1cc(NC(=O)c2ccc(COc3ccccc3)cn2)ccc1=O` [Compound 569] were, in that order, > 45 µM and 1.2 µM.
Turning to `Cn1cc(C(=O)Nc2ccc(Nc3cccc(Cl)c3)cn2)ccc1=O` [Compound 342], the IC50 in experiment [1] (setting [3]) is > 45 µM; in experiment [2] (setting [4]), 20.9 µM.
The like results for `Cn1cc(C(=O)Nc2nnc(Cc3ccc(F)c(Cl)c3)s2)ccc1=O` [Compound 350] were, in that order, 2.6 µM and 5.42 µM.
The like results for `Cn1cc(C(=O)Nc2ccc(Cc3cc(C(F)(F)F)ccn3)cn2)ccc1=O` [Compound 279] were, in that order, 21.5 µM and 1.96 µM.
For `Cn1cc(C(=O)Nc2ccc(Cc3cccc(C#N)c3)cn2)ccc1=O` [Compound 61, N-(5-(3-cyanobenzyl)pyridin-2-yl)-1-methyl-6-oxo-1,6-dihydropyridine-3-carboxamide], the 50% inhibitory concentration (IC50) in experiment [1] (SCD1 IC50) was found to be 7.52 µM; in experiment [2] (SCD5 IC50) it was 0.6 µM.
As to `Cn1nc(C(=O)Nc2cncc(Cc3cccc(Cl)c3)c2)ccc1=O` [Compound 426], the IC50 in experiment [1] (setting [3]) and in experiment [2] (setting [4]) was > 45 µM each time.
Consider `Cn1nc(C(=O)Nc2ccc(CCc3cccc(Cl)c3)cn2)ccc1=O` [Compound 297], for which the concentration for half-maximal inhibition (IC50) in experiment [1] (setting [3]) was > 45 µM; in experiment [2] (setting [4]), 1.2 µM.
Turning to `COc1cc(Cc2ccc(NC(=O)c3ccc(=O)n(C)c3)nc2)ccc1F` [Compound 54, N-(5-(4-fluoro-3-methoxybenzyl)pyridin-2-yl)-1-methyl-6-oxo-1,6-dihydropyridine-3-carboxamide], the IC50 was found to be 12 µM in experiment [1] (SCD1 IC50) and 0.58 µM in experiment [2] (SCD5 IC50).
For `O=C(Nc1ccc(Cc2cccc(Cl)c2)cn1)c1ccc(C2(O)CC2)nc1` [Compound 557], the half-maximal inhibitory concentration (IC50) in experiment [1] (setting [3]) is > 45 µM; in experiment [2] (setting [4]) it was 1.9 µM.
Regarding `Cc1cc(C(=O)Nc2ccc(Cc3ccc(F)c(C#N)c3)cn2)nn(C)c1=O` [Compound 610], the figures for the IC50 in experiment [1] (setting [3]) and in experiment [2] (setting [4]) were 3.4 µM and 0.6 µM, respectively.
The like results for `Cn1cc(C(=O)Nc2ccc(Oc3cccc(Cl)c3)cn2)ccc1=O` [Compound 161, N-[5-(3-chlorophenoxy)pyridin-2-yl]-1-methyl-6-oxo-1,6-dihydropyridine-3-carboxamide] were, in that order, > 45 µM and 1.64 µM.
The like results for `Cn1cc(C(=O)N[C@H]2CC[C@@H](Cc3cccc(Cl)c3)CC2)ccc1=O` [Compound 465] were, in that order, > 45 µM and > 45 µM.
The like results for `C[C@H](O)c1ccc(C(=O)Nc2ccc(Cc3cccc(Cl)c3)cn2)cn1` [Compound 519] were, in that order, 0.88 µM and 0.22 µM.
Turning to `Cc1cc(C(=O)Nc2ccc(Cc3ccc(F)c(F)c3)cn2)nn(C)c1=O` [Compound 523], the results for the 50% inhibitory concentration (IC50) in experiment [1] (setting [3]) and in experiment [2] (setting [4]) were > 45 µM and 0.11 µM, respectively.
On the same counts, the results for `Cn1cc(C(=O)Nc2nnc(Cc3cccc(Cl)c3)s2)ccc1=O` [Compound 462] are > 45 µM and > 45 µM.
On the same counts, the results for `Cn1nc(NC(=O)c2ccc(Cc3cccc(F)c3)cn2)ccc1=O` [Compound 88, 5-(3-Fluorobenzyl)-N-(1-methyl-6-oxo-1,6-dihydropyridazin-3-yl)picolinamide] are 0.65 µM and 0.02 µM.
On the same counts, the results for `COC(c1cccc(F)c1)c1cnc(NC(=O)C2=NN(C)C(=O)CC2)s1` (stereo not drawn) [Compound 204, N-(5-((3-fluorophenyl)(methoxy)methyl)thiazol-2-yl)-1-methyl-6-oxo-1,4,5,6-tetrahydropyridazine-3-carboxamide] are > 45 µM and 27.9 µM.
For the molecule `O=C(Nc1ccc(Cc2cc(F)cc(F)c2)cn1)c1ccc2nncn2c1` [Compound 149, N-(5-(3,5-difluorobenzyl)pyridin-2-yl)-[1,2,4]triazolo[4,3-a]pyridine-6-carboxamide], the IC50 in experiment [1] (setting [3]) turned out to be 0.23 µM; in experiment [2] (setting [4]), 0.01 µM.

These data come from patent publication US20230078764A1 (Yumanity Therapeutics, Inc., priority 2019, published 2023).
